Results as given in patent US12673106B2, “Modulators of nuclear receptor subfamily 4 group A member 1 (NR4A1) and uses thereof” (University of Florida Research Foundation, Incorporated, priority 2020, dated 2026).

How the values were obtained:
[1] = target: T1, NR4A1 (Homo sapiens, UniProt P22736); parameters: degrade endogenous NR4A1 in T47D breast cancer cells; endogenous in cells; host or cells: T47D breast cancer cells; conditions: NR4A1 ligand used as warhead; cited from earlier work
[2] = target: T1, NR4A1; test: E3 ligase-mediated NR4A1 degradation in transfected HEK293T cells (immunoblotting); format: cell-based; conditions: HEK293T transfected with NR4A1, with or without CRBN or VHL; 3 μM, 6 hrs
Experimental: FIG. 4A. Efficiency of NR4A1-Ps in protein degradation using 3 examples of NR4A1-Ps based on CRBN (NR-C91, 92, 93) and 4 based on VHL (NR-V03, 04, 07, 50), with NR-V04 showing the best efficacy in NR4A1 degradation. FIG. 4B. NR4A1 degradation is mediated by targeted E3 ligases. HEK293T cells were transfected with NR4A1, with or without overexpression of CRBN or VHL. 36 hrs after transfection, cells were treated with 3 μM of NR-C91 or NR-V04 for 6 hrs for immunoblotting.
(§1) Developing NR4A1-Ps. Due to the diverse function of NR4A1 in different cancer types, both agonistic and antagonistic ligands of NR4A1 are of interest in development (25). […] 4 cytosporone-B-based and 10 celastrol-based NR4A1-Ps using polyethylene glycol (PEG) linkers of various length have already been synthesized (FIG. 3 showing several examples).

[3] = target: T1, NR4A1; test: Degradation of endogenous NR4A1 in T47D breast cancer cells; format: cell-based; parameters: degrade endogenous NR4A1 in T47D breast cancer cells; endogenous in cells; host or cells: T47D breast cancer cells; conditions: 1 μM
[4] = Body weight and T cell development in normal mice; format: in vivo, mouse; conditions: up to 3 weeks
Text: Thymus (FIG. 12A) and spleen (FIG. 12B) were collected for T cell quantitation by flow cytometry.

[5] = tested on: MCF10A; test: MTS viability assay, MCF10A normal breast epithelial cells; format: cell-based, human; conditions: relative to celastrol
Text: (§2) NR4A1-Ps selectively kill breast cancer cells. Since NR-V04 is very efficient in NR4A1 degradation, a negative control, NR-V04-NT, was synthesized.

[6] = tested on: CD8+ T cells; test: CD8 T cell activation in B16F10 tumor bearing mice, flow cytometry; format: in vivo, mouse; conditions: 1.8 mg/kg, one week (two doses)
Experimental: B16F10 tumor bearing mice were treated with control vehicle or 1.8 mg/kg of NR-V04 for one week (two doses). CD8 T cells were analyzed for activation from tumors, spleen and blood. FIG. 15A. CD44+CD62L+(central memory, CM) and FIG. 15B. CD44+CD62L− (effector memory, EM) of CD8+ T cells were quantitated using flow cytometry.
We also determined the impact of NR-V04 on exhaustion and activation of CD8^+ T cells.

[7] = tested on: human T cells from PBMC; test: T cells from human PBMC of cancer patients, CD3/CD28 co-stimulated, flow cytometry; format: cell-based; conditions: 500 nM or 1 uM, two days
Experimental: T cells were purified from human PBMC from cancer patients and co-stimulated with anti-CD3/CD28 dynabeads for 3 days, following with DMSO, 500 nM or 1 uM of NR-V04 treatment for two days. FIG. 14A-14B, different sub-population of T cell numbers were quantitated via flow cytometry (FIG. 14A), with Treg panel separated (FIG. 14B).
In agreement with the in vivo models, we also activated all human T cells from PBMC of cancer patients, following with the treatment of various concentrations of NR-V04.

[8] = target: T2, NR4A1 (Mus musculus, UniProt P12813); test: NR4A1 degradation in MC38 tumors of treated mice (tumor lysate immunoblotting); format: in vivo; conditions: MC38-tumor bearing mice, 1.8 mg/kg twice weekly for 3 weeks
T2 construct: from tissue; host or cells: MC38 tumors from treated tumor-bearing mice (tumor lysates)
T2 sequence (P12813 whole entry): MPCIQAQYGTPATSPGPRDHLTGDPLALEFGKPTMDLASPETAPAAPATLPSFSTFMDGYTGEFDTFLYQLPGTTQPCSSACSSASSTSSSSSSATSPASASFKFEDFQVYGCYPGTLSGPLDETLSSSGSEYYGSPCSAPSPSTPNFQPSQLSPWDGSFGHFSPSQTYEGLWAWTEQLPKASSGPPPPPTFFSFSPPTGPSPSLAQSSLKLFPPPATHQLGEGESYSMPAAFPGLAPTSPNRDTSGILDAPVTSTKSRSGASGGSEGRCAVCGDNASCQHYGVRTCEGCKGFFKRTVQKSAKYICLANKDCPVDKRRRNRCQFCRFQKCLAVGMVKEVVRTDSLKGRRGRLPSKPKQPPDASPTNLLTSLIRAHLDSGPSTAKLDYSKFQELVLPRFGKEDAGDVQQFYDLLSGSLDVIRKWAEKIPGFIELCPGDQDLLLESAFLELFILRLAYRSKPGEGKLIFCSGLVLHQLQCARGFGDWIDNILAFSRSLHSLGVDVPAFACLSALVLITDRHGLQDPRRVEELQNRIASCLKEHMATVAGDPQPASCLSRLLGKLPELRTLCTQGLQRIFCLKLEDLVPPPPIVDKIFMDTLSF
Text: Tumor lysates were used for immunoblotting.
as §1

[9] = Pharmacokinetics in mouse, plasma by LC/MS/MS; format: in vivo
Experimental: Plasma concentrations of NR-V04 were determined by LC/MS/MS (Instrument: AB Sciex 6500 (#15)) using service from BioDuro Inc, at different time points after mice receiving iv injection of 2 mg/kg or ip injection of 20 mg/kg. PK values for iv (2 mg/kg, FIG. 17A) or ip (20 mg/kg, FIG. 17B) are shown and summarized (FIG. 17C).
PK was determined for NR-V04 for iv. injection of 2 mg/kg or ip injection of 20 mg/kg (FIG. 17).

[10] = tested on: Py8119 cells; test: Py8119 breast cancer model in C57/BL6 mice; format: in vivo, mouse
Experimental: FIG. 7A-FIG. 7D. Py8119 cells were injected into #4 mammary fatpad of 8-week female C57/BL6 mice, following with vehicle or NR-V04 treatment i.p. at 8 mg/kg weekly, starting at day 15 after tumor cell injection. Body weight (FIG. 7A), tumor growth (data not shown), and immune cell profiling by flow cytometry from spleen, tumor, and blood were shown (FIG. 7B-7D). CD45+CD3+CD8+ T cells (FIG. 7B), CD45+CD3+CD4+T (FIG. 7C), and ratios of CD4+Foxp3+Tregs to total T cells (T), to total CD4 T cells (CD4), to total CD4conv (non Treg CD4 T cells), or to CD8 T cells (FIG. 7D) were shown. * P<0.05; ** P<0.01.
(§3) FIG. 13A-FIG. 13C. Influence of NR-V04 treatment on TI-Tregs from (FIG. 13A) B16F10 melanoma, 1.8 mg/kg twice weekly for 3 weeks; (FIG. 13B) RENCA renal cancer model, 20 mg/kg once a week for 3 weeks; (FIG. 13C-13D) Py8119 breast cancer model, 8 mg/kg once a week for 3 weeks; with FIG. 13C showing the ratios between Treg/Tconv and FIG. 13D showing Treg/CD8+ T cell ratios.
Syngeneic models for antitumor activities. Syngeneic tumor models include breast cancer models: 1) E0771 as luminal breast cancer (C57BL/6 background) (36-38), 2) Py8119 (C57BL/6) (37, 39, 40) and 3) 4T1 (Balb/C) (41, 42) as triple negative breast cancer, and 4) MT2 as HER2-positive breast cancer (FVB/N) (43, 44), all of which develop metastasis upon orthotopic tumor injections; 5) MC-38 colon cancer model; 6) Renca renal carcinoma model; 7) B16 melanoma models. MC-38 is known to be responsive to ICIs and Renca is known to respond of Treg suppression in their tumor growth. B16 is only partially responsive to ICI treatment when anti-CTLA-4 and anti-PD-1 are combined. Careful titration of the minimal cell numbers provides consistent tumor growth and/or metastasis. For testing the efficacy of NR-V04 or other leads, tumor-bearing mice will be treated with either non-targeting NR-V04-NT or NR-V04, or other leads, starting 14 days after tumor cell injection when 3-5 mm in diameter tumor growth is typically seen in all models. The dose and frequency will be used based on the data from SA1.2. Based on work on BCL-XL PROTAC (22), weekly injection of the leads should be sufficient to maintain effective doses in various tissues.

[11] = tested on: B16F10 melanoma; test: B16F10 melanoma model in NSG mice; format: in vivo, mouse; conditions: 1.8 mg/kg twice weekly for 3 weeks
Text: (§4) FIG. 10A-10C. […] Tumor growth were monitored via palpation. N=7 mice/group. FIG. 10A and FIG. 10B are the same experiment, but FIG. 10B includes only control vehicle and NR-V04 treated groups in FIG. 10B.

[12] = tested on: T47D cells; test: MTS viability assay, T47D cells; format: cell-based; conditions: relative to celastrol or NR-V04-NT
Text: as §2

[13] = tested on: RENCA cells; test: RENCA renal cancer model in Balb/C mice; format: in vivo, mouse
Experimental: RENCA cells (10,000 per injection) were injected into s.c. of 8-week Balb/C mice, following with vehicle or NR-V04 treatment i.p. at 8 mg/kg weekly, starting at day 15 after tumor cell injection. Tumor volume was recorded.
as §3
Some of the above tumor models will be included, initially using immune responsive tumors including RENCA and MC38 model. […] Tumor volumes will be determined twice weekly by a caliper and calculated as length×width^2×0.5. Animal will be terminated once the largest tumors reach 2 cm in diameter per IACUC protocol (size is justified to determine lung metastasis). • The parameters include: • Primary tumors—Tumors will be cut into pieces and used for: a) immunohistochemical (IHC) staining (embedding in OCT compound and freezing). […]

[14] = tested on: B16F10 melanoma; test: B16F10 melanoma model in C57BL/6J mice; format: in vivo, mouse
Experimental: as §4, §3

[15] = tested on: OT-1 CD8 T cells; test: OVA peptide-induced exhaustion of OT-1 CD8 T cells, flow cytometry; format: cell-based, mouse; conditions: 1 μM
Experimental: Splenic CD8+ T cells were purified from OT-1 transgenic mice, treated with 10 ng/ml of OVA peptides for 5 days, following with NR-V04 treatment at 250 nM, 500 nM or 1 μM. CD39+, granzyme B+(P<0.0001), Lag3+ or PD-1+CD8 T cells (P<0.05) were quantitated using flow cytometry.
To induce antigen specific exhaustion of CD8^+ T cells, we purified CD8^+ T cells from OT-1 mice that expresses T cell receptor targeting OVA antigen. We treated these OT-1 CD8 T cells with OVA peptide for 5 days to induce their exhaustion, following with NR-V04 treatment with various concentrations.

[16] = tested on: MCF7-Tam cells; test: MTS viability assay, MCF7-Tam cells; format: cell-based; conditions: relative to celastrol or NR-V04-NT
Text: as §2

[17] = Toxicity and body weight in tumor-bearing mice (FIG. 11); format: in vivo; conditions: 0.75 mg/kg celastrol twice weekly for 3 weeks
Experimental: Body weight was recorded weekly.

T1 sequence (P22736 whole entry, species assumed): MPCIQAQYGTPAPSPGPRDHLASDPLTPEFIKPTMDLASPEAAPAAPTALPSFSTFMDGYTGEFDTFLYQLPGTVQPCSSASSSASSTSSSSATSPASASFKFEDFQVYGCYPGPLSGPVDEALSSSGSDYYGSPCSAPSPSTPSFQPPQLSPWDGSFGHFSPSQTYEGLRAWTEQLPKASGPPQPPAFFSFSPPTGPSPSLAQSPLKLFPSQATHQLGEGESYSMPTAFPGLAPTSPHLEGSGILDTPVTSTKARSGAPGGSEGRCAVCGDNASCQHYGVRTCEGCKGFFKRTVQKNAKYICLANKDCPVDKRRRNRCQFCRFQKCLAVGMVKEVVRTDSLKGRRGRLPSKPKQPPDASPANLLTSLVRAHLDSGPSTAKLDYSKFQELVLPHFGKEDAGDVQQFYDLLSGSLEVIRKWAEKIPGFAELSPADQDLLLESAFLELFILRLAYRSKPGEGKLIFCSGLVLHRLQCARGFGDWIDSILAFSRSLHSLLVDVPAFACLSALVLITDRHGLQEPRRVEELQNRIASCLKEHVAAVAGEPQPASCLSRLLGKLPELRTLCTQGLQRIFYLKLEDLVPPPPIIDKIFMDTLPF

In the case of `CCCCCCCC(=O)c1c(O)cc(O)cc1CC(=O)OCC` [cytosporone-B], the Kd [1] is given as 1680 nM.
For `CC1=C(O)C(=O)C=C2C1=CC=C1[C@@]2(C)CC[C@@]2(C)[C@@H]3C[C@](C)(C(=O)NCCOCCNc4cccc5c4C(=O)N(C4CCC(=O)NC4=O)C5=O)CC[C@]3(C)CC[C@]12C` (stereo partly drawn) [NR-C91], the “NR4A1 degradation with overexpression of the corresponding E3 ligase” value [2] was “overexpression of their corresponding E3 ligases facilitated NR4A1-P-mediated degradation of NR4A1” and the NR4A1 degradation [3] was “led to the degradation of NR4A1, but not as efficiently as NR-V04”.
In the case of `CC1=C(O)C(=O)C=C2C1=CC=C1[C@@]2(C)CC[C@@]2(C)[C@@H]3C[C@](C)(C(=O)NCCOCCOCCOCCOCC(=O)N[C@H](C(=O)N4C[C@H](O)C[C@H]4C(=O)N[C@@H](C)c4ccc(-c5scnc5C)cc4)C(C)(C)C)CC[C@]3(C)CC[C@]12C` [NR-V04], the body weight [4] is reported as “did not influence the body weight”, the “development of T cells in thymus and spleen” value [4] is reported as “did not change the normal development of T cells” and the “toxicity to normal cells (% viability)” value [5] is reported as “less toxic”. For the same compound, the “central memory CD8+ T cells (CD44+CD62L+)” value [6] was “no significant change”, the “effector memory population of CD8+ T cells (CD44+CD62L−)” value [6] was “significant increase” and the “T cell populations other than Tregs” value [7] was “no impact on various T cell populations”. For the same compound, the Tregs [7] was “selectively elimination of Tregs”, the “degradation of NR4A1 within tumors” value [8] was “efficient degradation of target protein NR4A1” and the average half-life ([9]; ip injection 20 mg/kg) was 8.58 h. The average half-life ([9]; iv injection 2 mg/kg) was 5.36 h, the “overall CD4+ and CD8+ T cells” value ([10]; Py8119, 8 mg/kg i.p. weekly) was “without influencing overall CD4+ and CD8+ T cells” and the “tumor-infiltrating Tregs versus effector T cell ratio” value ([10]; Py8119, 8 mg/kg i.p. weekly) was “On-target decrease”. For the same compound, the tumor growth ([10]; Py8119, 8 mg/kg i.p. weekly from day 15) was “Tumor growth difference was not observed”, the body weight ([10]; Py8119, 8 mg/kg i.p. weekly, day 25 or 30) was “no difference in body weight” and the tumor suppressing effect [11] was “this effect is diminished”. The “cell killing (% viability)” value [12] was “more robust killing relative to celastrol or NR-V04-NT”, the tumor volume ([13]; 8 mg/kg i.p. weekly from day 15) was “significant reduction” and the TI-Tregs ([13]; 20 mg/kg once a week for 3 weeks) was “decreased TI-Tregs”. For the same compound, the “NR4A1 degradation with overexpression of the corresponding E3 ligase” value [2] was “overexpression of their corresponding E3 ligases facilitated NR4A1-P-mediated degradation of NR4A1”, the TI-Tregs ([14]; B16F10, 1.8 mg/kg twice weekly for 3 weeks) was “decreased TI-Tregs” and the tumor growth ([14]; B16F10 in C57BL/6J male mice, 1.8 mg/kg NR-V04 or 0.75 mg/kg celastrol twice weekly for 3 weeks) was “significantly reduces tumor growth”. For the same compound, the “granzyme B+ active CD8 T cells” value [15] was “increase”, the “percent of Lag3+ exhausted CD8 T cells” value [15] was “significantly reduced” and the “percent of PD-1+ exhausted CD8 T cells” value [15] was “significantly reduced”. The NR4A1 degradation [3] was “best efficiency in inducing NR4A1 degradation” and the “cell killing (% viability)” value [16] was “more robust killing relative to celastrol or NR-V04-NT”.
In the case of `CC1=C(O)C(=O)C=C2C1=CC=C1[C@@]2(C)CC[C@@]2(C)[C@@H]3C[C@](C)(C(=O)O)CC[C@]3(C)CC[C@]12C` [celastrol], the body weight [17] is reported as “significant body weight change”.
